Paper PMC13144739, “Global analysis of cancer cell responses to USP9X inhibition” (The EMBO Journal, 2026)

Tests used:
[1] = system: T1, USP9X; assay: DUB IP-MS in MCF-7 cell lysates, USP9X; assay type: biochemical, human; conditions: 50 µM
T1 construct: endogenous in cells; host or cells: MCF-7 cell lysate
Procedure: MCF-7 cells have been profiled for active DUBs previously (Pinto-Fernández et al, [2019]). Lysates were generated as described by others (Turnbull et al, [2017]) using 30 s freeze-thaw cycles (thrice) in lysis buffer (50 mM Tris [pH 7.4], 5 mM MgCl2 × 6 H2O, 0.5 mM EDTA [pH 8.0], 250 mM sucrose and 1 mM DTT) at pH 7.5. […] A pre-treatment of cell lysates with 0.5 µg Ub-VS was included for a baseline DUB response to the Ub-VS probe. 0.1 µg 3X-FLAG-Ub-VS probe was added to samples and incubated for 5 min at 37 °C. […] Samples were washed thrice with lysis buffer and eluted from the resin with lysis buffer supplemented with 1% (w/v) SDS following a 10 min incubation. Two consecutive elutions were pooled, and samples were stored at −80 °C until processing.
DNA was hydrolysed with the addition of 2 µL neat TFA, and lysates were neutralised to pH 8.5 by the addition of 1 M Tris-HCl as previously described (Dagley et al, [2019]). Protein concentration was determined using Pierce™ BCA Protein Assay Kit (Thermo Fisher Scientific) following the manufacturer’s instructions. For DUB IP-MS, samples were processed using S-Trap spin columns (Profiti) by following the manufacturer’s instructions. […]

[2] = system: SK-MEL-2 cells; assay: NCI-60 cancer cell panel, SK-MEL-2; assay type: cell-based, human; conditions: 10 µM, 3 days
Procedure: Inhibitors were tested at 10 µM. Data shown is the mean of two technical replicates and is shown relative to the no-drug control, and relative to the time zero number of cells.

[3] = system: SK-MEL-2 cells; assay: Lattice light sheet imaging of mitosis, SK-MEL-2; assay type: cell-based, human; conditions: 15 µM, imaged 24-48 h
Procedure: (§1) MDA-MB-231, MiaPaca2, HMEC-1, SK-MEL-2 and UO-31 cells were seeded at 2–15 × 10^4 cells/mL in 8-well glass µ-slides (ibidi). […] SPY650-Tubulin, SPY555-DNA (both Spirochrome, Inc.), and Annexin V FITC (Sigma-Aldrich) were added at a final concentration of 1 in 1000. Cells were left to grow for 24 h before time-lapse live-cell data were acquired using a Lattice Light Sheet 7 (Zeiss). […] Aberration correction was set to a value of 170 to minimise aberrations as determined by imaging the Point Spread Function using 100 nm fluorescent microspheres. Data were collected with a frame time of 10 ms and a z step of 0.4 μm with 834 frames per 290 μm by 290 μm. Individual regions were imaged in parallel across six wells of the eight-well chamber slide. Data are presented as Maximum Intensity Projections (MIPs), and these MIPs were used for all downstream analysis. Tile regions were imaged for 24 h with 10 min intervals at 37 °C, 5% CO2. Analysis was performed using the MIPs of the different full fields of cells over the 24–48 h time period. Mitosis and mitosis arrest were classified through a combination of automated image analysis and manual validation. […] Small erroneous detected spots were further removed through a manually adjusted size filter. […] The mean intensity of all tracks was then measured to determine mitosis and mitosis arrest. […]

[4] = system: UO-31 cells; assay: Lattice light sheet imaging, UO-31; assay type: cell-based, human; conditions: 15 µM, imaged 24-48 h
Procedure: as §1

[5] = system: ACHN cells; assay: IncuCyte live-cell imaging cell death, ACHN; assay type: cell-based, human; conditions: 10 µM
Procedure: (§2) Cells were seeded at varying densities (1000–8000 cells per well) after initial optimisation in a 96-well tissue culture-treated plate (Thermo Fisher Scientific). Cells were incubated o/n, and the next day, inhibitors and controls diluted in cell media were added to the cells to a final volume of 200 μL per well. Cell death was measured using PI (Sigma-Aldrich). Cells were imaged with four images per well every 2 h for up to 96 h using the IncuCyte live-cell analysis system (S3, Sartorius). Cell proliferation data were analysed using Microsoft Excel by normalising confluence to control conditions. For cell killing readouts, the number of PI-positive cells was normalised to the control conditions for each timepoint.

[6] = system: MDA-MB-468 cells; assay: Colony formation assay, MDA-MB-468; assay type: cell-based, human; conditions: 10 µM, 7–12 days
Procedure: Cells were seeded at low density (200–4000 cells per well) after initial optimisation in a six-well tissue culture-treated plate (Falcon). Twenty-four hours post seeding, media was replaced, and the inhibitor was added. Cells were left to grow into colonies between 7 and 12 days, depending on the cell line. For analysis, the media was removed, and the cells were fixed with 10% (w/v) formalin for 10 min. Colonies were stained with crystal violet (Sigma-Aldrich, 0.5% [w/v] in 20% [v/v] MeOH) for 10 min and washed thrice with distilled H2O. Plates were imaged using the ChemiDoc imaging system (Bio-Rad) and analysed using the ImageJ ColonyArea plugin as described previously (Guzmán et al, [2014]).

[7] = biological target: T2, USP9X Δβ (USP9X β-hairpin deletion) (Homo sapiens, UniProt Q93008, DEL1924-1943); assay: Ub-Rho cleavage assay, USP9X Δβ variant; assay type: biochemical
T2 construct: His/SUMO (pOPIN-S vector) (N, cleaved yes); made in house; host or cells: E. coli BL21
T2 sequence (Q93008 with tags, fused parts or gaps DEL1924-1943): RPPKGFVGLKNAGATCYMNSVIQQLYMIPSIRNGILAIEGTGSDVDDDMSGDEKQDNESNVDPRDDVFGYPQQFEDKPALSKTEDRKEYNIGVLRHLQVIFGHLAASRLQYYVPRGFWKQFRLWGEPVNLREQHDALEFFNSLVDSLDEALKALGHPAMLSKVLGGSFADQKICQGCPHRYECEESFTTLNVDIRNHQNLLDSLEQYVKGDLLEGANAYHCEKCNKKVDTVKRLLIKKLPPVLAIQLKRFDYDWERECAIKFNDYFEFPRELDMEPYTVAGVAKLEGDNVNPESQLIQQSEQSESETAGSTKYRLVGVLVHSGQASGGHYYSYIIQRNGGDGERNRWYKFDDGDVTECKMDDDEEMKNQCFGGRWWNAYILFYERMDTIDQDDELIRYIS
Text: An expression construct for the USP9X catalytic domain (aa 1551–1970, […]: Q93008-1), was codon optimised for bacterial expression, synthesised in gBlock format (Integrated DNA Technologies) and cloned into the pOPIN-S vector (Berrow et al, [2007]), which was digested with KpnI and HindIII using In-Fusion™ HD cloning (Takara Clontech). […] For the USP9X Δβ catalytic domain a deletion construct ΔE1924-K1943 and for USP9X/USP24 chimera, a construct with USP9X Y1757-A1766 replaced with the USP24 (NCBI Reference Sequence: NP_056121) aa motif […] was used. All constructs were confirmed by Sanger sequencing (AGRF).
The reaction was stopped through the addition of 10 mM citric acid. The assay was performed in 384-well format with a total reaction volume of 16 µL. Data was collected using the ClarioSTAR plate reader (BMG Labtech) at an emission of 535 nm. […] IC50 values presented in our study are the mean of three independent biological repeats unless indicated otherwise.

[8] = system: HUVECs; assay: IncuCyte live-cell imaging, HUVEC; assay type: cell-based
Procedure: as §2

For Cc1[nH]c2ccc(C(=O)N3CCN(S(=O)(=O)c4ccc5c(c4)OCCO5)CC3)cc2c1C [WEHI-092], the “inhibition of USP9X in MCF-7 lysate (DUB IP-MS)” value [1] was “inhibited all active USP9X in the lysate”, the “cell growth, SK-MEL-2” value [2] was “stalling cell growth completely” and the “cell division phenotype, SK-MEL-2” value [3] was “significant defects in cell division”. For the same compound, the “arrested mitosis phenotype, UO-31” value [4] was “did not display the arrested mitosis phenotype”, the “response of ACHN cells (cell death)” value [5] was “limited response” and the “clonogenic potential, MDA-MB-468” value [6] was “strong decrease in proliferative capacity”. The IC50 [7] was 248 nM and the “toxicity to HUVECs” value [8] was “non-lethal and non-toxic”.
